# Source: PubChem BioAssay (NCI)
#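 Values below derive from 48-hour exposures of cells grown in 96-well plates, with endpoints linearly interpolated between the two concentrations bracketing the appropriate inhibition level. At the TGI there is no net growth.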
# Legend:
# Assay in all cases: inhibition of tumour cell growth, NCI panel, 48 h
# 786-0 renal = test system: 786-0 renal
# A498 renal = test system: A498 renal
# A549 NSCLC = test system: A549 NSCLC
# ACHN renal = test system: ACHN renal
# CAKI-1 renal = test system: CAKI-1 renal
# CCRF-CEM leukemia = test system: CCRF-CEM leukemia
# COLO 205 colon = test system: COLO 205 colon
# DLD-1 colon = test system: DLD-1 colon
# DMS 273 small cell lung = test system: DMS 273 small cell lung
# EKVX NSCLC = test system: EKVX NSCLC
# HCC-2998 colon = test system: HCC-2998 colon
# HCT-116 colon = test system: HCT-116 colon
# HCT-15 colon = test system: HCT-15 colon
# HL-60(TB) leukemia = test system: HL-60(TB) leukemia
# HOP-18 NSCLC = test system: HOP-18 NSCLC
# HOP-62 NSCLC = test system: HOP-62 NSCLC
# HOP-92 NSCLC = test system: HOP-92 NSCLC
# HT29 colon = test system: HT29 colon
# IGROV1 ovarian = test system: IGROV1 ovarian
# K-562 leukemia = test system: K-562 leukemia
# KM12 colon = test system: KM12 colon
# KM20L2 colon = test system: KM20L2 colon
# LOX IMVI melanoma = test system: LOX IMVI melanoma
# LXFL 529 NSCLC = test system: LXFL 529 NSCLC
# M14 melanoma = test system: M14 melanoma
# M19-MEL melanoma = test system: M19-MEL melanoma
# MALME-3M melanoma = test system: MALME-3M melanoma
# MOLT-4 leukemia = test system: MOLT-4 leukemia
# NCI-H226 lung = test system: NCI-H226 lung
# NCI-H23 lung = test system: NCI-H23 lung
# NCI-H460 lung = test system: NCI-H460 lung
# NCI-H522 lung = test system: NCI-H522 lung
# OVCAR-3 ovarian = test system: OVCAR-3 ovarian
# OVCAR-4 ovarian = test system: OVCAR-4 ovarian
# OVCAR-5 ovarian = test system: OVCAR-5 ovarian
# OVCAR-8 ovarian = test system: OVCAR-8 ovarian
# RPMI-8226 leukemia = test system: RPMI-8226 leukemia
# RXF 393 renal = test system: RXF 393 renal
# RXF-631 renal = test system: RXF-631 renal
# SF-268 CNS = test system: SF-268 CNS
# SF-295 CNS = test system: SF-295 CNS
# SF-539 CNS = test system: SF-539 CNS
# SK-MEL-2 melanoma = test system: SK-MEL-2 melanoma
# SK-MEL-28 melanoma = test system: SK-MEL-28 melanoma
# SK-MEL-5 melanoma = test system: SK-MEL-5 melanoma
# SK-OV-3 ovarian = test system: SK-OV-3 ovarian
# SN12C renal = test system: SN12C renal
# SNB-19 CNS = test system: SNB-19 CNS
# SNB-75 CNS = test system: SNB-75 CNS
# SNB-78 CNS = test system: SNB-78 CNS
# SW-620 colon = test system: SW-620 colon
# TK-10 renal = test system: TK-10 renal
# U251 CNS = test system: U251 CNS
# UACC-257 melanoma = test system: UACC-257 melanoma
# UACC-62 melanoma = test system: UACC-62 melanoma
# UO-31 renal = test system: UO-31 renal
# BT-549 breast = test system: BT-549 breast
# DMS 114 small cell lung = test system: DMS 114 small cell lung
# DU-145 prostate = test system: DU-145 prostate
# HS 578T breast = test system: HS 578T breast
# MCF7 breast = test system: MCF7 breast
# MDA-MB-231 breast = test system: MDA-MB-231 breast
# MDA-MB-435 = test system: MDA-MB-435
# MDA-N = test system: MDA-N
# NCI/ADR-RES ovarian = test system: NCI/ADR-RES ovarian
# PC-3 prostate = test system: PC-3 prostate
# SR leukemia = test system: SR leukemia
# T-47D breast = test system: T-47D breast
# XF 498 CNS = test system: XF 498 CNS
compound,measurement,setting,value
COc1cc([C@@H]2c3cc4c(cc3[C@@H](OC(=O)c3ccc(N)cc3)C3COC(=O)[C@@H]32)OCO4)cc(OC)c1O (stereo not given in full),TGI,786-0 renal,59 µM
same,TGI,A498 renal,31.5 µM
same,TGI,A549 NSCLC,28.1 µM
same,TGI,ACHN renal,28.2 µM
same,TGI,CAKI-1 renal,> 95 µM
same,TGI,CCRF-CEM leukemia,> 95 µM
same,TGI,COLO 205 colon,18.9 µM
same,TGI,DLD-1 colon,> 95 µM
same,TGI,DMS 273 small cell lung,61.9 µM
same,TGI,EKVX NSCLC,> 95 µM
same,TGI,HCC-2998 colon,36.3 µM
same,TGI,HCT-116 colon,> 95 µM
same,TGI,HCT-15 colon,56.1 µM
same,TGI,HL-60(TB) leukemia,22.2 µM
same,TGI,HOP-18 NSCLC,> 95 µM
same,TGI,HOP-62 NSCLC,26.9 µM
same,TGI,HOP-92 NSCLC,20.7 µM
same,TGI,HT29 colon,21.2 µM
same,TGI,IGROV1 ovarian,17.3 µM
same,TGI,K-562 leukemia,> 95 µM
same,TGI,KM12 colon,44.7 µM
same,TGI,KM20L2 colon,3.57 µM
same,TGI,LOX IMVI melanoma,50.7 µM
same,TGI,LXFL 529 NSCLC,> 95 µM
same,TGI,M14 melanoma,> 95 µM
same,TGI,M19-MEL melanoma,> 95 µM
same,TGI,MALME-3M melanoma,63.5 µM
same,TGI,MOLT-4 leukemia,67.4 µM
same,TGI,NCI-H226 lung,33.6 µM
same,TGI,NCI-H23 lung,14.4 µM
same,TGI,NCI-H460 lung,46.7 µM
same,TGI,NCI-H522 lung,5.35 µM
same,TGI,OVCAR-3 ovarian,35 µM
same,TGI,OVCAR-4 ovarian,> 95 µM
same,TGI,OVCAR-5 ovarian,> 95 µM
same,TGI,OVCAR-8 ovarian,78.5 µM
same,TGI,RPMI-8226 leukemia,58 µM
same,TGI,RXF 393 renal,> 95 µM
same,TGI,RXF-631 renal,42 µM
same,TGI,SF-268 CNS,> 95 µM
same,TGI,SF-295 CNS,> 95 µM
same,TGI,SF-539 CNS,7.99 µM
same,TGI,SK-MEL-2 melanoma,59.6 µM
same,TGI,SK-MEL-28 melanoma,> 95 µM
same,TGI,SK-MEL-5 melanoma,16.7 µM
same,TGI,SK-OV-3 ovarian,20.7 µM
same,TGI,SN12C renal,40.1 µM
same,TGI,SNB-19 CNS,> 95 µM
same,TGI,SNB-75 CNS,36.4 µM
same,TGI,SNB-78 CNS,> 95 µM
same,TGI,SW-620 colon,> 95 µM
same,TGI,TK-10 renal,94.2 µM
same,TGI,U251 CNS,28.7 µM
same,TGI,UACC-257 melanoma,> 95 µM
same,TGI,UACC-62 melanoma,19.5 µM
same,TGI,UO-31 renal,34.5 µM
COC(=O)c1ccccc1OCc1cc(=O)oc2ccc(C)cc12,TGI,786-0 renal,> 100 µM
same,TGI,A498 renal,> 100 µM
same,TGI,A549 NSCLC,> 100 µM
same,TGI,ACHN renal,> 100 µM
same,TGI,BT-549 breast,> 100 µM
same,TGI,CAKI-1 renal,> 100 µM
same,TGI,CCRF-CEM leukemia,> 100 µM
same,TGI,COLO 205 colon,> 100 µM
same,TGI,DLD-1 colon,> 100 µM
same,TGI,DMS 114 small cell lung,> 100 µM
same,TGI,DMS 273 small cell lung,> 100 µM
same,TGI,DU-145 prostate,> 100 µM
same,TGI,EKVX NSCLC,> 100 µM
same,TGI,HCC-2998 colon,> 100 µM
same,TGI,HCT-116 colon,> 100 µM
same,TGI,HCT-15 colon,> 100 µM
same,TGI,HL-60(TB) leukemia,> 100 µM
same,TGI,HOP-62 NSCLC,> 57.5 µM
same,TGI,HOP-92 NSCLC,> 74.7 µM
same,TGI,HS 578T breast,> 100 µM
same,TGI,HT29 colon,> 100 µM
same,TGI,IGROV1 ovarian,> 100 µM
same,TGI,K-562 leukemia,> 100 µM
same,TGI,KM12 colon,> 100 µM
same,TGI,KM20L2 colon,> 100 µM
same,TGI,LOX IMVI melanoma,> 100 µM
same,TGI,LXFL 529 NSCLC,> 100 µM
same,TGI,M14 melanoma,> 100 µM
same,TGI,M19-MEL melanoma,> 100 µM
same,TGI,MALME-3M melanoma,> 100 µM
same,TGI,MCF7 breast,> 100 µM
same,TGI,MDA-MB-231 breast,> 100 µM
same,TGI,MDA-MB-435,> 100 µM
same,TGI,MDA-N,> 100 µM
same,TGI,MOLT-4 leukemia,> 100 µM
same,TGI,NCI-H226 lung,> 100 µM
same,TGI,NCI-H23 lung,> 100 µM
same,TGI,NCI-H460 lung,> 100 µM
same,TGI,NCI-H522 lung,48.6 µM
same,TGI,NCI/ADR-RES ovarian,> 100 µM
same,TGI,OVCAR-3 ovarian,> 100 µM
same,TGI,OVCAR-4 ovarian,> 63.4 µM
same,TGI,OVCAR-5 ovarian,> 100 µM
same,TGI,OVCAR-8 ovarian,> 100 µM
same,TGI,PC-3 prostate,> 100 µM
same,TGI,RPMI-8226 leukemia,> 100 µM
same,TGI,RXF-631 renal,> 100 µM
same,TGI,SF-268 CNS,> 82.7 µM
same,TGI,SF-295 CNS,> 81.2 µM
same,TGI,SF-539 CNS,78.5 µM
same,TGI,SK-MEL-2 melanoma,> 85.4 µM
same,TGI,SK-MEL-28 melanoma,> 100 µM
same,TGI,SK-MEL-5 melanoma,> 100 µM
same,TGI,SK-OV-3 ovarian,> 100 µM
same,TGI,SN12C renal,> 100 µM
same,TGI,SNB-19 CNS,38.9 µM
same,TGI,SNB-75 CNS,45.5 µM
same,TGI,SR leukemia,> 100 µM
same,TGI,SW-620 colon,> 100 µM
same,TGI,T-47D breast,> 100 µM
same,TGI,TK-10 renal,> 100 µM
same,TGI,U251 CNS,35.4 µM
same,TGI,UACC-257 melanoma,> 100 µM
same,TGI,UACC-62 melanoma,> 66.6 µM
same,TGI,UO-31 renal,> 100 µM
same,TGI,XF 498 CNS,90.4 µM
O=CN/C=C/c1cccc(O)c1,TGI,786-0 renal,83.7 µM
same,TGI,A498 renal,> 76.8 µM
same,TGI,A549 NSCLC,79.7 µM
same,TGI,ACHN renal,84.6 µM
same,TGI,BT-549 breast,58.5 µM
same,TGI,CAKI-1 renal,> 79.7 µM
same,TGI,CCRF-CEM leukemia,> 100 µM
same,TGI,COLO 205 colon,> 100 µM
same,TGI,DLD-1 colon,> 100 µM
same,TGI,DMS 114 small cell lung,> 100 µM
same,TGI,DMS 273 small cell lung,> 100 µM
same,TGI,DU-145 prostate,> 97.5 µM
same,TGI,EKVX NSCLC,> 96.6 µM
same,TGI,HCC-2998 colon,> 100 µM
same,TGI,HCT-116 colon,75.6 µM
same,TGI,HCT-15 colon,> 100 µM
same,TGI,HL-60(TB) leukemia,> 100 µM
same,TGI,HOP-18 NSCLC,> 100 µM
same,TGI,HOP-62 NSCLC,65.8 µM
same,TGI,HOP-92 NSCLC,> 97.1 µM
same,TGI,HS 578T breast,> 95.1 µM
same,TGI,HT29 colon,74.8 µM
same,TGI,IGROV1 ovarian,> 88.2 µM
same,TGI,K-562 leukemia,> 100 µM
same,TGI,KM12 colon,> 100 µM
same,TGI,KM20L2 colon,> 100 µM
same,TGI,LOX IMVI melanoma,69.1 µM
same,TGI,LXFL 529 NSCLC,> 100 µM
same,TGI,M14 melanoma,> 88.2 µM
same,TGI,M19-MEL melanoma,> 100 µM
same,TGI,MALME-3M melanoma,> 100 µM
same,TGI,MCF7 breast,> 68.4 µM
same,TGI,MDA-MB-231 breast,99.2 µM
same,TGI,MDA-MB-435,> 100 µM
same,TGI,MDA-N,> 85 µM
same,TGI,MOLT-4 leukemia,> 100 µM
same,TGI,NCI-H226 lung,89.2 µM
same,TGI,NCI-H23 lung,72.4 µM
same,TGI,NCI-H460 lung,77.6 µM
same,TGI,NCI-H522 lung,65.4 µM
same,TGI,NCI/ADR-RES ovarian,> 100 µM
same,TGI,OVCAR-3 ovarian,> 100 µM
same,TGI,OVCAR-4 ovarian,> 93.8 µM
same,TGI,OVCAR-5 ovarian,> 96.1 µM
same,TGI,OVCAR-8 ovarian,> 96.1 µM
same,TGI,PC-3 prostate,> 100 µM
same,TGI,RPMI-8226 leukemia,> 100 µM
same,TGI,RXF 393 renal,85.1 µM
same,TGI,SF-268 CNS,> 93.4 µM
same,TGI,SF-295 CNS,> 63.1 µM
same,TGI,SF-539 CNS,> 83 µM
same,TGI,SK-MEL-2 melanoma,> 81.6 µM
same,TGI,SK-MEL-28 melanoma,> 100 µM
same,TGI,SK-MEL-5 melanoma,> 75.6 µM
same,TGI,SK-OV-3 ovarian,> 100 µM
same,TGI,SN12C renal,> 100 µM
same,TGI,SNB-19 CNS,> 100 µM
same,TGI,SNB-75 CNS,> 92.5 µM
same,TGI,SNB-78 CNS,> 100 µM
same,TGI,SR leukemia,> 75.2 µM
same,TGI,SW-620 colon,98.8 µM
same,TGI,T-47D breast,98.7 µM
same,TGI,TK-10 renal,> 100 µM
same,TGI,U251 CNS,> 83 µM
same,TGI,UACC-257 melanoma,> 89.2 µM
same,TGI,UACC-62 melanoma,63.3 µM
same,TGI,UO-31 renal,> 83.2 µM
same,TGI,XF 498 CNS,> 100 µM
